Results: US10072025B2, “Ethyl N-boc piperidinyl pyrazolo pyridones as Janus kinase inhibitors” (Merck Sharp & Dohme Corp., priority 2014, dated 2018)
Like-named read-outs stand apart in the source and are kept apart here.

Tests used:
[1] = target: JAK1 (Homo sapiens (Human), UniProt P23458); assay: Jak Biochemical HTRF Assay (JAK1)
Procedure: (§1) Jak Biochemical HTRF Assay Protocol
(§2) The ability of compounds to inhibit the activity of JAK1, JAK2, JAK3, and Tyk2 was measured using a recombinant purified GST-tagged catalytic domain for each enzyme (Invitrogen JAK1 #M4290, JAK2 #M4290, JAK3 #M4290, Tyk2 #M4290) in an HTRF format biochemical assay. […] The basic assay protocol is as follows: First, 250 nL of diluted compounds in DMSO were dispensed into the wells of a dry 384-well Black plate (Greiner #781076) using a Labcyte Echo 555 acoustic dispenser. Subsequent reagent additions employed an Agilent Bravo. Next, 18 μL of 1.11× enzyme and 1.11× substrate in 1× assay buffer (Invitrogen kinase buffer # PV3189, 2 mM DTT, 0.05% BSA) were added to the wells and shaken and then preincubated for 30 minutes at room temperature to allow compound binding to equilibrate. After equilibration, 2 μL of 10×ATP in 1× assay buffer was added to initiate the kinase reaction and the plates were shaken and then incubated at room temperature for 120 minutes. At the end of the incubation, 20 μL of 2× stop buffer (streptavidin-Dylight 650 (Thermo #84547B/100 mL), Eu-tagged pY20 antibody (Perkin Elmer #AD0067), EDTA, HEPES, and Triton) was added to quench the reaction. Plates were shaken and centrifuged and then incubated 60 minutes at room temperature and then read on a Perkin Elmer Envision (Xex=337 nm, λem=665 and 615 nm, TRF delay time=20 μs). HTRF signal=10,000*665 nm reading/615 nm reading. After normalization to untreated controls, the percent inhibition of the HTRF signal at each compound concentration was calculated. The plot of percent inhibition versus the log of compound concentration was fit with a 4-parameter dose response equation to calculate IC50 values.

[2] = target: JAK2 (Homo sapiens (Human), UniProt O60674); assay: Jak Biochemical HTRF Assay (JAK2); conditions: recombinant purified GST-tagged catalytic domain, [ATP] 8.5 μM, [E] 0.052 nM
Procedure: as §1, §2

[3] = recombinant purified GST-tagged catalytic domain, HTRF, [ATP] 31.8 μM, [E] 1.405 nM

Chain of JAK2 (O60674 849-1124): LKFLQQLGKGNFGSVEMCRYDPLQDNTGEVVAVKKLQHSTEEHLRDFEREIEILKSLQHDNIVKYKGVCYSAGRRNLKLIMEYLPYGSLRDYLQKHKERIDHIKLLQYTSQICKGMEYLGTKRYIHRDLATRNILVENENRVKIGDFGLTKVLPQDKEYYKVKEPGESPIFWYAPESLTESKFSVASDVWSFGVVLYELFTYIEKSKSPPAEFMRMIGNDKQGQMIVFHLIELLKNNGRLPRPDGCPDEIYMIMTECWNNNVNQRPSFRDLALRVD
Chain of JAK1 (P23458 875-1153): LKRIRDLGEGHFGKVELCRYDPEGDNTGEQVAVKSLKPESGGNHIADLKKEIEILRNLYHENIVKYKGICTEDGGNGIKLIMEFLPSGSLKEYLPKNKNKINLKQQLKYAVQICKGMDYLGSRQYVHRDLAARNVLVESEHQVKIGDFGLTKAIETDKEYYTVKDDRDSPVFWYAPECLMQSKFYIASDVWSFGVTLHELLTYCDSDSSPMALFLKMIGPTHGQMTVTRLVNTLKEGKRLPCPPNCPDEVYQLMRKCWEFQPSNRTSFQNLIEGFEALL

| IC50 [1, 3] | IC50 [2] | SMILES | IC50 [1] |
| --- | --- | --- | --- |
| 0.29 nM | 0.36 nM | CCC1(n2nc(Nc3ccc4c(c3)CN(C3CCN(C)CC3)S4(=O)=O)c3c(=O)[nH]ccc32)CCN(C(=O)OC(C)(C)C)CC1 [Example 2-30, tert-butyl 4-ethyl-4-(3-((2-(1-methylpiperidin-4-yl)-1,1-dioxido-2,3-dihydrobenzo [d]isothiazol-5-yl)amino)-4-oxo-4,5-dihydro-1H-pyrazolo [4,3-c]pyridin-1-yl) piperidine-1-carboxylate] |  |
| 0.51 nM | 0.51 nM | CCC1(n2nc(Nc3ccc(C(=O)N4CCOC[C@@H]4C)c(C)c3)c3c(=O)[nH]ccc32)CCN(C(=O)OC(C)(C)C)CC1 [Example 2-6, (S)-tert-butyl 4-ethyl-4-(3-((3-methyl-4-(3-methylmorpholine-4-carbonyl)phenyl)amino)-4-oxo-4,5-dihydro-1H-pyrazolo[4,3-c]pyridin-1-yl) piperidine-1-carboxylate] |  |
| 1.09 nM | 1.17 nM | CCC1(n2nc(Nc3ccc(C(=O)N4C[C@@H](C)O[C@@H](C)C4)c(C)c3)c3c(=O)[nH]ccc32)CCN(C(=O)OC(C)(C)C)CC1 [Example 3-4, tert-butyl 4-{3-[(4-{[(2R,6S)-2,6-dimethylmorpholin-4-yl]carbonyl}-3-methylphenyl)amino]-4-oxo-4,5-dihydro-1H-pyrazolo[4,3-c]pyridin-1-yl}-4-ethylpiperidine-1-carboxylate] |  |
| 1.69 nM | 1.34 nM | CCC1(n2nc(Nc3ccc(C(=O)N4CCOC5CC54)c(C)c3)c3c(=O)[nH]ccc32)CCN(C(=O)OC(C)(C)C)CC1 (stereo not shown) [Example 3-21, tert-butyl 4-ethyl-4-(3-{[3-methyl-4-(2-oxa-5-azabicyclo [4.1.0]hept-5-ylcarbonyl)phenyl]amino}-4-oxo-4,5-dihydro-1H-pyrazolo [4,3-c]pyridin-1-yl) piperidine-1-carboxylate] |  |
| 0.56 nM | 0.68 nM | CCC1(n2nc(Nc3ccc(C(=O)N4CCC(N5CCSCC5)CC4)c(C)c3)c3c(=O)[nH]ccc32)CCN(C(=O)OC(C)(C)C)CC1 [Example 3-12, tert-butyl 4-ethyl-4-[3-({3-methyl-4-[(4-thiomorpholin-4-ylpiperidin-1-yl)carbonyl]phenyl}amino)-4-oxo-4,5-dihydro-1H-pyrazolo[4,3-c]pyridin-1-yl] piperidine-1-carboxylate] |  |
| 0.62 nM | 0.57 nM | CCC1(n2nc(Nc3ccc(C(=O)N4CCO[C@@H](C)C4)c(C)c3)c3c(=O)[nH]ccc32)CCN(C(=O)OC(C)(C)C)CC1 [Example 2-8, (5)-tert-butyl-4-ethyl-4-(3-(3-methyl-4-(2-methylmorpholine-4-carbonyl)phenylamino)-4-oxo-4,5-dihydropyrazolo[4,3-c]pyridin-1-yl) piperidine-1-carboxylate] |  |
| 0.52 nM | 0.63 nM | CCC1(n2nc(Nc3ccc(C(=O)N4C[C@H](C)O[C@@H](C)C4)c(C)c3)c3c(=O)[nH]ccc32)CCN(C(=O)OC(C)(C)C)CC1 [Example 3-7, tert-butyl 4-{3-[(4-{[(2S,6S)-2,6-dimethylmorpholin-4-yl]carbonyl}-3-methylphenyl)amino]-4-oxo-4,5-dihydro-1H-pyrazolo[4,3-c]pyridin-1-yl}-4-ethylpiperidine-1-carboxylate] |  |
| 0.37 nM | 0.47 nM | CCC1(n2nc(Nc3ccc(C(=O)N4CCOCC4)c(C)c3)c3c(=O)[nH]ccc32)CCN(C(=O)OC(C)(C)C)CC1 [Example 2-9, tert-butyl 4-ethyl-4-(3-((3-methyl-4-(morpholine-4-carbonyl)phenyl)amino)-4-oxo-4,5-dihydro-1H-pyrazolo[4,3-c]pyridin-1-yl) piperidine-1-carboxylate] |  |
| 1.13 nM | 1.92 nM | CCC1(n2nc(Nc3ccc(C4CCNCC4)cc3)c3c(=O)[nH]ccc32)CCN(C(=O)OC(C)(C)C)CC1 [Example 2-23, tert-butyl 4-ethyl-4-(4-oxo-3-(4-(piperidin-4-yl)phenylamino)-4,5-dihydropyrazolo[4,3-c]pyridin-1-yl) piperidine-1-carboxylate] |  |
| 0.72 nM | 0.6 nM | CCC1(n2nc(Nc3ccc(C(=O)N4CCO[C@H](C)C4)c(C)c3)c3c(=O)[nH]ccc32)CCN(C(=O)OC(C)(C)C)CC1 [Example 2-7, (R)-tert-butyl-4-ethyl-4-(3-(3-methyl-4-(2-methylmorpholine-4-carbonyl)phenylamino)-4-oxo-4,5-dihydropyrazolo[4,3-c]pyridin-1-yl) piperidine-1-carboxylate] |  |
| 0.38 nM | 5.24 nM | CCC1(n2nc(Nc3ccnc(F)c3)c3c(=O)[nH]ccc32)CCN(C(=O)OC(C)(C)C)CC1 [Example 2-40, tert-butyl 4-ethyl-4-(3-(2-fluoropyridin-4-ylamino)-4-oxo-4,5-dihydropyrazolo[4,3-c]pyridin-1-yl) piperidine-1-carboxylate] |  |
| 0.25 nM | 0.8 nM | CCC1(n2nc(Nc3ccc(C(=O)N4CCOC(=O)C4)c(C)c3)c3c(=O)[nH]ccc32)CCN(C(=O)OC(C)(C)C)CC1 [Example 3-1, tert-butyl-4-ethyl-4-(3-((3-methyl-4-(2-oxomorpholine-4-carbonyl)phenyl)amino)-4-oxo-4,5-dihydro-1H-pyrazolo[4,3-c]pyridin-1-yl)piperidine-1-carboxylate] |  |
| 0.12 nM | 0.64 nM | CCC1(n2nc(Nc3ccc(S(C)(=O)=O)cc3)c3c(=O)[nH]ccc32)CCN(C(=O)OC(C)(C)C)CC1 [Example 1-3, tert-butyl 4-ethyl-4-(3-(4-(methylsulfonyl)phenyl-amino)-4-oxo-4,5-dihydropyrazolo[4,3-c]pyridin-1-yl)piperidine-1-carboxylate] |  |
| 0.99 nM | 1.53 nM | CCC1(n2nc(Nc3ccc(C(=O)N4CCOC5(CCCC5)C4)c(C)c3)c3c(=O)[nH]ccc32)CCN(C(=O)OC(C)(C)C)CC1 [Example 3-3, tert-butyl 4-ethyl-4-(3-{[3-methyl-4-(6-oxa-9-azaspiro[4.5]dec-9-ylcarbonyl)phenyl]amino}-4-oxo-4,5-dihydro-1H-pyrazolo[4,3-c]pyridin-1-yl) piperidine-1-carboxylate] |  |

| SMILES | IC50 [1, 3] | IC50 [2] | IC50 [1] |
| --- | --- | --- | --- |
| CCC1(n2nc(Nc3ccc(C(=O)O)c(C)c3)c3c(=O)[nH]ccc32)CCN(C(=O)OC(C)(C)C)CC1 [Example 2-44, 4-((1-(1-(tert-butoxycarbonyl)-4-ethylpiperidin-4-yl)-4-oxo-4,5-dihydro-1H-pyrazolo [4,3-c]pyridin-3-yl)amino)-2-methylbenzoic acid] | 0.23 nM | 2.1 nM |  |
| CCC1(n2nc(Nc3ccc(C(=O)N4C5CCC4COC5)c(C)c3)c3c(=O)[nH]ccc32)CCN(C(=O)OC(C)(C)C)CC1 [Example 2-13, tert-butyl 4-(3-((4-(3-oxa-8-azabicyclo [3.2.1]octane-8-carbonyl)-3-methylphenyl)amino)-4-oxo-4,5-dihydro-1H-pyrazolo[4,3-c]pyridin-1-yl)-4-ethylpiperidine-1-carboxylate] |  | 0.54 nM | 0.52 nM |
| CCC1(n2nc(Nc3ccc(C(=O)N4C[C@H]5C[C@@H](C4)O5)c(C)c3)c3c(=O)[nH]ccc32)CCN(C(=O)OC(C)(C)C)CC1 [Example 3-6, tert-butyl 4-ethyl-4-[3-({3-methyl-4-[(1R,5S)-6-oxa-3-azabicyclo[3.1.1]hept-3-ylcarbonyl]phenyl}amino)-4-oxo-4,5-dihydro-1H-pyrazolo[4,3-c]pyridin-1-yl]piperidine-1-carboxylate] |  | 0.43 nM | 0.3 nM |
